This is an account of results in US9006232B2, “Pyrimidone derivatives” (Mitsubishi Tanabe Pharma Corporation, priority 2009, dated 2015).

pIC50: −log10 of the molar value.

bovine cerebral TPK1, sequence (A0A059UE90 1-419): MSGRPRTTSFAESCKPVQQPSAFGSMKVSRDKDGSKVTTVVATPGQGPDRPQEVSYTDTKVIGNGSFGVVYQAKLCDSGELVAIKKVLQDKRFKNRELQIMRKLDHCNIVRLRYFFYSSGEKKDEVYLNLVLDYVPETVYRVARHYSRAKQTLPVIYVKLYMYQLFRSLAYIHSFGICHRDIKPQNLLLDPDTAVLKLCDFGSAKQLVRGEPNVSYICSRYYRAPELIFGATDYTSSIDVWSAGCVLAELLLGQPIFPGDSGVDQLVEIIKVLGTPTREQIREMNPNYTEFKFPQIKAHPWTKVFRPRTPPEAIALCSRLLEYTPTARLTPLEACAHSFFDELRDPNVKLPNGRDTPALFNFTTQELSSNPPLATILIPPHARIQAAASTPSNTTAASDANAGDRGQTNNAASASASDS

The test concerns the target bovine cerebral TPK1 (Bos taurus, UniProt A0A059UE90). The test can be described thus: Inhibitory activity against P-GS1 phosphorylation by bovine cerebral TPK1. The format is biochemical. As to conditions: P-GS1 phosphorylation, 41.7 μM [γ-32P] ATP, 25° C., 2 hours; read-out: IC50. The protocol:
Inhibitory Activity of the Medicament of the Present Invention Against P-GS1 Phosphorylation by Bovine Cerebral TPK1 […] The phosphorylation was started by adding ATP, and the reaction was conducted at 25° C. for 2 hours, and then stopped by adding 21% perchloric acid on ice cooling. The reaction mixture was centrifuged at 12,000 rpm for 5 minutes and adsorbed on P81 paper (Whatmann), and then the paper was washed four times with 75 mM phosphoric acid, three times with water and once with acetone. The paper was dried, and the residual radioactivity was measured using a liquid scintillation counter.
Usually pIC50 stands for the negative decadic logarithm of the IC50, by convention in mol/L. For the compound `Cn1c(OC2CCN(Cc3ccccc3)CC2)nc(-c2ccncn2)cc1=O` [1.504, 2-(1-Benzyl-piperidin-4-yloxy)-1-methyl-1H-[4,4′]bipyrimidinyl-6-one], the pIC50 was 6.02.

For the compound `Cn1c(OC2CCN(C(=O)OCc3ccccc3)CC2)nc(-c2ccncn2)cc1=O` [1.110, Benzyl 4-(1-methyl-6-oxo-1,6-dihydro-[4,4′]bipyrimidinyl-2-yloxy) piperidine-1-carboxylate], the negative logarithm of the IC50 (pIC50) was 6.85.

`Cn1c(OCCc2ccc(CN3CCCCC3)cc2)nc(-c2ccncc2)cc1=O` [Compound No. 2.401, 3-Methyl-2-[2-(4-piperidin-1-ylmethyl-phenyl)ethoxy]-6-pyridin-4-yl-3H-pyrimidin-4-one dihydrochioride]: the pIC50 was 6.96.

For `Cn1c(OC2CCNCC2)nc(-c2ccncc2F)cc1=O` [1.204, 6-(3-Fluoro-pyridin-4-yl)-3-methyl-2-(piperidin-4-yloxy)-3H-pyrimidin-4-one], the negative logarithm of the IC50 (pIC50) was 6.61.

Consider `Cn1c(OC[C@H]2CCN(c3ccsc3)C2)nc(-c2ccncn2)cc1=O` [Compound No. 2.207, 1-Methyl-2-[(3S)-1-(thiophen-3-yl)pyrrolidin-3-ylmethoxy]-1H-[4,4]′bipyrimidinyl-6-one], for which the pIC50 is 6.51.

Take `CC(=O)N1CCN(c2ccc(N3CCC(Oc4nc(-c5ccncn5)cc(=O)n4C)CC3)cc2)CC1` [1.210, 2-{1-[4-(4-Acetyl-piperazin-1-yl)phenyl]piperidin-4-yloxy}-1-methyl-1H-[4,4′]bipyrimidinyl-6-one]: the negative logarithm of the IC50 (pIC50) was 7.56.

As to `CCCCCCOc1nc(-c2ccncc2)cc(=O)n1C` [2.003, 2-Hexyloxy-3-methyl-6-pyridin-4-yl-3H-pyrimidin-4-one], the pIC50 was 6.59.

With `COC(=O)N1CCCC(Oc2nc(-c3ccncn3)cc(=O)n2C)C1` (stereo not drawn) [Compound No. 1.102, Methyl 3-(1-methyl-6-oxo-1,6-dihydro-[4,4′]bipyrimidinyl-2-yloxy) piperidine-1-carboxylate], the pIC50 was 7.55.

Consider `Cn1c(OC2CCN(c3ccc(CN4CCCC4=O)cc3)CC2)nc(-c2ccncc2F)cc1=O` [1.218, 6-(3-Fluoro-pyridin-4-yl)-3-methyl-2-{1-[4-(2-oxo-pyrrolidin-1-ylmethyl)phenyl]piperidin-4-yloxy}-3H-pyrimidin-4-one], for which the pIC50 was 6.81.

With `CCN(CCOc1nc(-c2ccncn2)cc(=O)n1C)c1cccc(C)c1` [1.809, 2-[2-(Ethyl-m-tolyl-amino)-ethoxy]-1-methyl-1H-[4,4′] bipyrimidinyl-6-one], the negative-log IC50 (pIC50) was 6.37.

As for `Cn1c(OC2CCN(c3ccc4c(c3)CNC4)CC2)nc(-c2ccncn2)cc1=O` [1.225, 2-[1-(2,3-Dihydro-1H-isoindol-5-yl)piperidin-4-yloxy]-1-methyl-1H-[4,4′]bipyrimidinyl-6-one], the negative-log IC50 (pIC50) is 8.03.

`CN(C)Cc1ccc(N2CCC(Oc3nc(-c4ccncn4)cc(=O)n3C)CC2)cc1` [1.220, 2-[1-(4-Dimethylaminomethyl-phenyl)piperidin-4-yloxy]-1-methyl-1H-[4,4′]bipyrimidinyl-6-one]: the negative-log IC50 (pIC50) is 7.67.

Turning to `Cn1c(OC2CCN(c3ccc(CN4CCCCC4)cc3)C2)nc(-c2ccncn2)cc1=O` (stereo not drawn) [1.231, 1-Methyl-2-[1-(4-piperidin-1-ylmethyl-phenyl)pyrrolidin-3-yloxy]-1H-[4,4′]bipyrimidinyl-6-one], the negative logarithm of the IC50 (pIC50) was 7.89.

Consider `Cn1c(OC2CCN(C(=O)Oc3ccccc3)CC2)nc(-c2ccncn2)cc1=O` [1.112, Phenyl 4-(1-methyl-6-oxo-1,6-dihydro-[4,4′]bipyrimidinyl-2-yloxy) piperidine-1-carboxylate], for which the negative logarithm of the IC50 (pIC50) was 6.97.

Turning to `Cn1c(OC2CCCN(c3ccccc3F)C2)nc(-c2ccncn2)cc1=O` (stereo not drawn) [1.103, 2-[1-(2-Fluoro-phenyl)piperidin-3-yloxy]-1-methyl-1H-[4,4′] bipyrimidinyl-6-one], the negative logarithm of the IC50 (pIC50) is 7.31.
